Test system: calreticulin (CRT) exposure on MCA205 cells
Assay: Externalisation of calreticulin (confocal microscopy, anti-CRT antibody)
Assay type: cell-based, mouse
Conditions: positive control, light condition not stated
Protocol: Surface exposure of CRT was measured via confocal fluorescence microscopy after staining with an anti‐CRT antibody (ab2907). […] The surface exposure in the dark might be due to the oxaliplatin, a bona fide ICD inducer. Specifically, CRT expression increased by 67% upon irradiation and 63% in the dark, compared with non‐treated cells.
Figure 8 Translocation and changes in calreticulin (CRT) exposure on MCA205 cells determined by confocal fluorescence microscopy after 4 h treatment under dark (−L) and light (+L) (740 nm, 1 h) conditions, and an additional 16 h of incubation. DAPI: Nuclear fluorescence dye. Scale bar: 20 µm.
The localisation of the different parts of the studied complexes was determined by measuring the Os and Pt content inside A2780 cells via ICP-MS. […] After this time, the cells were trypsinized and counted. […] In parallel, the content of Os and Pt was determined in a total cell extraction (2·10 6 cells). […] The Os and Pt content was determined using an ICP -MS apparatus and comparing the results with the Os and Pt calibration standards.
A2780 cells were seeded in a 12-well plate to obtain a 90 –100% confluency. […] The cells were monitored by imaging over the following time intervals: 0, 6, 24, 32, and 48 h. […]
Extracellular ATP released from treated MCA205 and A2780 cells was detected by the luminescent ATP assay kit (ab113849). […]

## O=C1[O][Pt]2([NH][C@@H]3CCCC[C@H]3[NH]2)[O]C1=O [Oxaliplatin]
  CRT increase: 21%
